The text below walks through data of patent US6841519B1, “Isoxazoline derivatives and herbicides containing the same as the active ingredient” (Kumiai Chemical Industry Co., Ltd., priority 1999, dated 2005).

What all share (assay type): in vivo
The subject of test [1] is Echinochloa oryzicola Vasing. (Eo). As to the kind of experiment: Test for herbicidal effect by paddy field soil treatment (Test Example 1). To be noted: application amount (active ingredient) 100 g/10 a, examined at the 21st day from the treatment, index per Table 40. Summed up:
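Scored on a standard scale at day 21 in the greenhouse: herbicidal effect of wettable powder applied to flooded water (3 cm depth) at 100 g a.i./10 ares, one day after sowing Eo into puddled paddy soil.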

Test [2] relates to Setaria viridis (L.) Beauv. (Se). As to the kind of experiment: Test for herbicidal effect by upland field soil treatment (Test Example 2), Se. In a few lines: (§1)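 Pre-emergence soil treatment: wettable powder diluted in water and sprayed on soil just sown with Ec and Se seeds, delivering 100 g active ingredient per 10 ares in 100 liters per 10 ares. Herbicidal effect was rated against a fixed scale 21 days later, after greenhouse growth.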

Test [3] concerns Echinochloa crus-galli (L.) Beauv. var. crusgall (Ec). Briefly: Test for herbicidal effect by upland field soil treatment (Test Example 2), Ec. Summed up: as §1
The test system of test [4] is Echinochloa crus-galli (L.) Beauv. var. crusgalli (Ec). As to the kind of experiment: Test for herbicidal effect by upland foliage treatment (Test Example 3). To be noted: 100 g/10 a active ingredient, examined at 14th day. Summed up:
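Scored 14 days post-spray against a graded standard: greenhouse-grown Ec, 2 weeks old in upland soil, received whole-foliage application of diluted wettable powder (100 g active ingredient per 10 ares, spray volume 100 L per 10 ares).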

Setting [5] is: application amount (active ingredient) 100 g/10 a, examined at the 21st day from the treatment, index per Table 40.
Where [6] appears, read: 100 g/10 a active ingredient, examined at 21st day.

Regarding `CC1(C2CC2)CC(S(=O)(=O)Cc2c(F)cccc2F)=NO1` (centres unmarked) [Compound 1-378], the “Herbicidal effect to Eo” value in test [1] was 5 (A herbicidal effect or phytotoxicity of 90% or more). In addition, the “Herbicidal effect to Se” value in test [2] (setting [5]) is listed as 5 (A herbicidal effect or phytotoxicity of 90% or more). Besides, the “Herbicidal effect to Ec” value in test [3] (setting [5]) and in test [4] was 5 (A herbicidal effect or phytotoxicity of 90% or more) throughout.

With `O=S(=O)(Cc1c(F)cccc1F)C1=NOC2(CC2)C1` [Compound 1-380], the “Herbicidal effect to Eo” value in test [1] is given as 5 (A herbicidal effect or phytotoxicity of 90% or more). Besides, the “Herbicidal effect to Se” value in test [2] (setting [5]) is listed as 4 (A herbicidal effect or phytotoxicity of 70% to less than 90%). For the same compound, the “Herbicidal effect to Ec” value in test [3] (setting [5]) was 5 (A herbicidal effect or phytotoxicity of 90% or more); in test [4], 4 (A herbicidal effect or phytotoxicity of 70% to less than 90%).

On to `O=S(=O)(Cc1c(F)cccc1F)C1=NOC2(CCCC2)C1` [Compound 1-383], for which the “Herbicidal effect to Eo” value in test [1] was 5 (A herbicidal effect or phytotoxicity of 90% or more). Besides, the “Herbicidal effect to Se” value in test [2] (setting [5]) is reported as 4 (A herbicidal effect or phytotoxicity of 70% to less than 90%). Moreover, the results for the “Herbicidal effect to Ec” value in test [3] (setting [5]) and in test [4] were 5 (A herbicidal effect or phytotoxicity of 90% or more) and 4 (A herbicidal effect or phytotoxicity of 70% to less than 90%), respectively.

`CC1(C)CC(S(=O)(=O)Cc2cccc(Cl)c2Cl)=NO1` [Compound 1-487]: the “Herbicidal effect to Eo” value in test [1] is 5 (A herbicidal effect or phytotoxicity of 90% or more). In test [2] (setting [5]), the “Herbicidal effect to Se” value is listed as 5 (A herbicidal effect or phytotoxicity of 90% or more). Besides, the “Herbicidal effect to Ec” value in test [3] (setting [5]) is given as 5 (A herbicidal effect or phytotoxicity of 90% or more); in test [4], 4 (A herbicidal effect or phytotoxicity of 70% to less than 90%).

Regarding `CC1(C)CC(S(=O)(=O)Cc2ccc(Cl)cc2Cl)=NO1` [Compound 1-488], in test [1], the “Herbicidal effect to Eo” value is listed as 5 (A herbicidal effect or phytotoxicity of 90% or more). In addition, the “Herbicidal effect to Se” value in test [2] (setting [5]) was 4 (A herbicidal effect or phytotoxicity of 70% to less than 90%). Moreover, the “Herbicidal effect to Ec” value in test [3] (setting [5]) is given as 5 (A herbicidal effect or phytotoxicity of 90% or more); in test [4], 4 (A herbicidal effect or phytotoxicity of 70% to less than 90%).

Consider `CC1(C)CC(S(=O)(=O)Cc2cc(Cl)ccc2Cl)=NO1` [Compound 1-489], for which the “Herbicidal effect to Eo” value in test [1] is 5 (A herbicidal effect or phytotoxicity of 90% or more). In addition, the “Herbicidal effect to Se” value in test [2] (setting [5]) is 5 (A herbicidal effect or phytotoxicity of 90% or more). In addition, the results for the “Herbicidal effect to Ec” value in test [3] (setting [5]) and in test [4] were 5 (A herbicidal effect or phytotoxicity of 90% or more) and 4 (A herbicidal effect or phytotoxicity of 70% to less than 90%), respectively.

For `CC1(C)CC(S(=O)(=O)Cc2c(Cl)cccc2Cl)=NO1` [Compound 1-490], the “Herbicidal effect to Eo” value in test [1] was 5 (A herbicidal effect or phytotoxicity of 90% or more). Besides, the “Herbicidal effect to Se” value in test [2] (setting [5]) is recorded as 4 (A herbicidal effect or phytotoxicity of 70% to less than 90%). Further, the “Herbicidal effect to Ec” value in test [3] (setting [5]) was 5 (A herbicidal effect or phytotoxicity of 90% or more); in test [4], 4 (A herbicidal effect or phytotoxicity of 70% to less than 90%).

With `CC1(C)CC(S(=O)(=O)Cc2ccc(Cl)c(Cl)c2)=NO1` [Compound 1-491], in test [1], the “Herbicidal effect to Eo” value is on record as 5 (A herbicidal effect or phytotoxicity of 90% or more). The “Herbicidal effect to Se” value in test [2] (setting [5]) is reported as 5 (A herbicidal effect or phytotoxicity of 90% or more). The “Herbicidal effect to Ec” value in test [3] (setting [5]) was 5 (A herbicidal effect or phytotoxicity of 90% or more); in test [4], 4 (A herbicidal effect or phytotoxicity of 70% to less than 90%).

In the case of `CC1(C)CC(S(=O)(=O)Cc2cc(Cl)cc(Cl)c2)=NO1` [Compound 1-492], the “Herbicidal effect to Eo” value in test [1] is 5 (A herbicidal effect or phytotoxicity of 90% or more). Further, the “Herbicidal effect to Se” value in test [2] (setting [5]) was 5 (A herbicidal effect or phytotoxicity of 90% or more). The results for the “Herbicidal effect to Ec” value in test [3] (setting [5]) and in test [4] were 5 (A herbicidal effect or phytotoxicity of 90% or more) and 4 (A herbicidal effect or phytotoxicity of 70% to less than 90%), respectively.

Turning to `CC1(C)CC(S(=O)(=O)Cc2c(F)cccc2Cl)=NO1` [Compound 1-494], the “Herbicidal effect to Eo” value in test [1] is 5 (A herbicidal effect or phytotoxicity of 90% or more). Further, the “Herbicidal effect to Se” value in test [2] (setting [5]) is reported as 5 (A herbicidal effect or phytotoxicity of 90% or more). Further, the “Herbicidal effect to Ec” value in test [3] (setting [5]) and in test [4] was 5 (A herbicidal effect or phytotoxicity of 90% or more) throughout.

For the compound `CC1C(S(=O)(=O)Cc2c(F)cccc2F)=NOC1(C)C` (centres unmarked) [Compound 1-495], the “Herbicidal effect to Eo” value in test [1] is on record as 5 (A herbicidal effect or phytotoxicity of 90% or more). Besides, the “Herbicidal effect to Se” value in test [2] (setting [5]) is recorded as 5 (A herbicidal effect or phytotoxicity of 90% or more). Further, the “Herbicidal effect to Ec” value in test [3] (setting [5]) and in test [4] was 5 (A herbicidal effect or phytotoxicity of 90% or more) each time.

As to `CC1ON=C(S(=O)(=O)Cc2c(F)cccc2F)C1C` (centres unmarked) [Compound 1-496], the “Herbicidal effect to Eo” value in test [1] is reported as 5 (A herbicidal effect or phytotoxicity of 90% or more). For the same compound, the “Herbicidal effect to Se” value in test [2] (setting [5]) is given as 4 (A herbicidal effect or phytotoxicity of 70% to less than 90%). Also, the “Herbicidal effect to Ec” value in test [3] (setting [5]) and in test [4] was 5 (A herbicidal effect or phytotoxicity of 90% or more) in each case.

Consider `CC1(C)CC(S(=O)(=O)Cc2ccc(F)c(F)c2)=NO1` [Compound 1-497], for which the “Herbicidal effect to Eo” value in test [1] is 5 (A herbicidal effect or phytotoxicity of 90% or more). The “Herbicidal effect to Se” value in test [2] (setting [5]) was 5 (A herbicidal effect or phytotoxicity of 90% or more). For the same compound, the “Herbicidal effect to Ec” value in test [3] (setting [5]) and in test [4] was 5 (A herbicidal effect or phytotoxicity of 90% or more) throughout.

Turning to `CCc1cccc(CC)c1CS(=O)(=O)C1=NOC(C)(C)C1` [Compound 1-502], in test [1], the “Herbicidal effect to Eo” value was 5 (A herbicidal effect or phytotoxicity of 90% or more). Besides, the “Herbicidal effect to Se” value in test [2] (setting [6]) is given as 5 (A herbicidal effect or phytotoxicity of 90% or more). Also, the “Herbicidal effect to Ec” value in test [3] (setting [6]) and in test [4] was 5 (A herbicidal effect or phytotoxicity of 90% or more) in each case.

Take `CC1(C)CC(S(=O)(=O)Cc2cccc(F)c2F)=NO1` [Compound 1-504]: in test [1], the “Herbicidal effect to Eo” value was 5 (A herbicidal effect or phytotoxicity of 90% or more). In addition, the “Herbicidal effect to Se” value in test [2] (setting [6]) was 5 (A herbicidal effect or phytotoxicity of 90% or more). Also, the “Herbicidal effect to Ec” value in test [3] (setting [6]) and in test [4] was 5 (A herbicidal effect or phytotoxicity of 90% or more) throughout.

As for `CC1(C)CC(S(=O)(=O)Cc2ccc(F)cc2F)=NO1` [Compound 1-505], in test [1], the “Herbicidal effect to Eo” value is 5 (A herbicidal effect or phytotoxicity of 90% or more). Also, in test [2] (setting [6]), the “Herbicidal effect to Se” value is on record as 5 (A herbicidal effect or phytotoxicity of 90% or more). In addition, the “Herbicidal effect to Ec” value in test [3] (setting [6]) and in test [4] was 5 (A herbicidal effect or phytotoxicity of 90% or more) in each case.

Regarding `CC1(C)CC(S(=O)(=O)Cc2cc(F)cc(F)c2)=NO1` [Compound 1-506], the “Herbicidal effect to Eo” value in test [1] is reported as 5 (A herbicidal effect or phytotoxicity of 90% or more). For the same compound, the “Herbicidal effect to Se” value in test [2] (setting [6]) is recorded as 5 (A herbicidal effect or phytotoxicity of 90% or more). Besides, the “Herbicidal effect to Ec” value in test [3] (setting [6]) was 5 (A herbicidal effect or phytotoxicity of 90% or more); in test [4], 4 (A herbicidal effect or phytotoxicity of 70% to less than 90%).

As for `CC1(C)CC(S(=O)(=O)Cc2ccc(F)c(F)c2F)=NO1` [Compound 1-507], the “Herbicidal effect to Eo” value in test [1] is 5 (A herbicidal effect or phytotoxicity of 90% or more). Besides, in test [2] (setting [6]), the “Herbicidal effect to Se” value was 5 (A herbicidal effect or phytotoxicity of 90% or more). In addition, the “Herbicidal effect to Ec” value was 5 (A herbicidal effect or phytotoxicity of 90% or more) in test [3] (setting [6]) and 4 (A herbicidal effect or phytotoxicity of 70% to less than 90%) in test [4].

`CC1(C)CC(S(=O)(=O)Cc2cc(F)cc(F)c2F)=NO1` [Compound 1-508]: the “Herbicidal effect to Eo” value in test [1] is 5 (A herbicidal effect or phytotoxicity of 90% or more). For the same compound, in test [2] (setting [6]), the “Herbicidal effect to Se” value was 5 (A herbicidal effect or phytotoxicity of 90% or more). Also, the entries for the “Herbicidal effect to Ec” value in test [3] (setting [6]) and in test [4] were 5 (A herbicidal effect or phytotoxicity of 90% or more) and 4 (A herbicidal effect or phytotoxicity of 70% to less than 90%), respectively.

For `CC1(C)CC(S(=O)(=O)Cc2cc(F)c(F)c(F)c2)=NO1` [Compound 1-509], the “Herbicidal effect to Eo” value in test [1] is on record as 5 (A herbicidal effect or phytotoxicity of 90% or more). Moreover, the “Herbicidal effect to Se” value in test [2] (setting [6]) is on record as 5 (A herbicidal effect or phytotoxicity of 90% or more). Also, the “Herbicidal effect to Ec” value in test [3] (setting [6]) is 5 (A herbicidal effect or phytotoxicity of 90% or more); in test [4], 4 (A herbicidal effect or phytotoxicity of 70% to less than 90%).
